Measured values: patent publication US20240082416A1, “AMATOXIN ANALOGS AND USES THEREOF” (THE UNIVERSITY OF BRITISH COLUMBIA, priority 2020, published 2024)

Experiments:
[1] = Cell viability assay (BrdU incorporation) on HEK293-OATP1B3 cells; type: cell-based, human; conditions: human, HEK293-OATP1B3 cells (OATP1B3 overexpressing HEK293), HEK293-OATP1B3 cells
Procedure: (§1) . HEK293 and HEK-OATP1B3 cells were plated at 2.5×10^3 cells/well in a 1:1 mixture of Ham's F12 with DMEM containing 10% charcoal-stripped fetal calf serum (FCS) onto poly-D-lysine-coated 96-well plates and grown for 24 hours. Subsequently, cells were incubated with amanitin analogs at 8 different concentrations (1×10^−6 M to 1.28×10^−11 M, serial 1:5 dilutions). Following 96 h of drug exposure, cell viability was determined by a BrdU incorporation assay (Cell Proliferation ELISA, BrdU, Roche) and chemiluminescence was measured using a FLUOstar Optima plate reader (BMG LABtech). Data analysis was performed with GraphPad Prism 8 (GraphPad Software, Inc., La Jolla, CA) software to plot curve fits.

HEK293-OATP1B3 cells = test: as above; type: cell-based, human; conditions: HEK293-OATP1B3 vs HEK293
Procedure: as §1

RNA-polymerase II = RNA-polymerase II (Homo sapiens, UniProt P24928); conditions: cited from earlier work
[2] = molecular target: eukaryotic RNA polymerase II (Pol II) (Homo sapiens, UniProt P24928); conditions: literature; cited from earlier work
CHO cells [3] = test: Viability assay against CHO cells (MTT colorimetric assay); type: cell-based, Chinese hamster; conditions: CHO cells, MTT assay, control
Procedure: (f) Cell culture: Cells were cultured in Minimum Essential Medium Eagle—Alpha Modification (α-MEM) or […] Dulbecco's Modified Eagle Medium (DMEM), purchased from Gibco. […] All cell culture plastic ware was obtained from Coming or Falcon. Cells were cultured at 37° C. in a humidified chamber with 5% CO2. When used in cell culture, DMSO was purified by filtration through a […] filter. All experiments were carried out in a laminar flow culture cabinet, unless otherwise noted.
Immortalized CHO cells had been stored in liquid nitrogen. To revive cells, a 1-mL tube of the frozen cells in medium containing 10% DMSO was warmed in a 30° C. water bath and diluted with 9 mL of fresh media. Media contained 10% FBS and 100 U/mL penicillin and […] streptomycin, unless otherwise indicated. The cells were incubated in a T-25 flask at 37° C. at 5% CO2. After 24 hours, the medium was aspirated and replaced with fresh medium. When cells reached a level of 90-100% confluence, they were sub-cultured. […] Once the cells were detached from the tissue culture flask, 3-5 mL media was added to quench the trypsin and the mixture was transferred to a 10 mL centrifuge tube. The mixture was centrifuged for 5 min at […], and the supernatant was discarded. The cells were suspended in fresh medium, diluted as required, and transferred to a new culture flask.
To assay cell viability, a nearly confluent tissue culture flask was trypsinized, and the cells were counted following treatment with Trypan blue, using a hemocytometer. The cells were then diluted to the appropriate stock concentrations in fresh medium and transferred in 100 μL to a 96-well plate using a multi-channel pipette. The number of cells plated varied from experiment to experiment. These were incubated at 37° C. and 5% CO2 for a 24-hour period to allow for adherence. The medium was aspirated, and fresh medium was added, which contained the desired additives in DMSO. The cells were then re-incubated for 72 h. At the completion of the experiment, a 100 μL aliquot of 25 mg/mL MTT in phosphate-buffered saline (PBS) was added to each well. The plate was incubated three hours further to allow for the formation of the formazan product in viable cells. The media was carefully aspirated, and the purple product was solubilized in DMSO. […] Data was processed in Microsoft Excel and GraphPad Prism. Experiments were performed in triplicates unless otherwise noted, and the error bars were calculated as the standard error of the mean.
Each cell line was plated in a 96-well plate, with 100 μL of the stock solution per well (5000 cells per well) and incubated for 24 hours. […] The cells were incubated for 72 hours, at which point viability was assessed as described.

HEK293 cells = type: cell-based, human; conditions: wt-HEK293 cells lacking OATP1B3; 96 h
Procedure: as §1

Pol II = molecular target: T1, Pol II (Homo sapiens, UniProt P24928); test: In vitro transcription runoff assay using HeLaScribe nuclear extract; type: biochemical; conditions: mean ± standard deviation
T1 construct: HeLaScribe® nuclear extract containing Pol II and all other transcription factors; purchased Promega; host or cells: HeLa nuclear extract (endogenous protein)
From the text: (h) In vitro transcription assay of synthetic amanitins containing analogs of Hyp: Primers were purchased from IDT via standard phosphoramidite chemistry. dNTP and rNTP were purchased from Thermofisher. GoTaq polymerase and HeLaScribe*Nuclear Extract in vitro Transcription System was purchased from Promega. Taq polymerase was purchased from NEB. [^32P] α-dGTP (3000 Ci/mmol 10 mCi/ml EasyTide) and [^32P] α-GTP (3000 Ci/mmol 10 mCi/ml EasyTide) were purchased from Perkin Elmer. QIAquick PCR purifcation kit was purchased from Qiagen. AcGFP1-N1 was a gift (Addgene plasmid #54705; http://n2t.net/addgene:54705; RRID:Addgene_54705). DNA Primer sequences were:
The DNA template for transcription runoff was synthesized by PCR with template pAcGFP-N1, and primers P1 and P2. To a final volume of 20 μL, 1 x GoTaq Buffer, 250 μM of each dNTP, 500 nM of each primers P1 and P2, […] pAcGFP-N1 and 0.05 U/μL GoTaq were employed to thermocycle for 30 cycles (30 s at 95° C., 30 s at 50° C. and 60 s at 72° C., Bio-Rad). A 1 μL aliquot of the amplified solution was resolved with 6×DNA loading dye in a 1% agarose gel containing […] and then visualized using GelDoc XR imager (Bio-Rad). Purification was completed via QIAquick PCR purification kit (Qiagen). The radioactive chromatographic standard was synthesized by PCR with template pAcGFP-N1, and primers P3 and P4. To a final volume of 50 μL, 1 x Thermopol Buffer, 200 μM of each dNTP, 500 nM of each primers P3 and P4, 10 pg/μL pAcGFP-N1 and 0.02 U/μL Vent polymerase, 1 μL [^32P] α-dGTP were employed to thermocycle for 30 cycles (30 s at 95° C., 30 s at 62° C. and 30 s at 72° C., Bio-Rad). A 1 μL aliquot of the amplified solution was resolved with 6×DNA loading dye in 8% denaturing PAGE and then visualized by autoradiography via the Typhoon 9200 imager (Molecular namics-Amersham-GE). Purification was completed via QIAquick PCR purification kit (Qiagen). The transcription runoff assay was modified from HeLaScribe® Nuclear Extract in vitro Transcription System (Promega). […]. The pellet was resolved by 8% denaturing PAGE and then visualized by autoradiography via the Typhoon 9200 imager (Molecular dynamics-Amersham-GE). Dosimetry was calculated by ImageJ, and the 3 parameter logistic fit was completed by Origin 2019 (OriginLab). […]
All data were presented in mean±standard deviation (n=3).

CHO cells [4] = conditions: background statement, read-out: Ki (CHO cells readily killed); cited from earlier work

CC[C@H](C)[C@@H]1NC(=O)CNC(=O)[C@@H]2Cc3c([nH]c4cc(O)ccc34)[S@+]([O-])C[C@H](NC(=O)CNC1=O)C(=O)N[C@@H](CC(=O)O)C(=O)N1C[C@H](O)C[C@H]1C(=O)N[C@@H]([C@@H](C)[C@@H](O)CO)C(=O)N2 [β-amanitin, reference compound]
IC50 at 96 h ([1]; 96 h): 8.5 ± 1.1 nM
viability at 96 h, 1 µM ([1]; highest used concentration of 1 μM): 0%
fold increase in toxicity / reduction of the IC50 value on HEK293-OATP1B3 relative to HEK293 cells (HEK293-OATP1B3 cells): 15 fold

amanitin
Kd (RNA-polymerase II): 3 nM

amanullin
Ki [2]: 10 to 40 nM

proamanullin
Ki [2]: 5000 to 20000 nM

α-amanitin [Compound 1, reference compound]
IC50 (CHO cells [3]): 350 to 1100 nM
IC50 (HEK293 cells): 130 ± 80 nM
Transcription activity E (%) (Pol II; 1 nM): 85.0 ± 2.4%
Transcription activity E (%) (Pol II; 3 nM): 69.5 ± 9.4%
Transcription activity E (%) (Pol II; 10 nM): 48.1 ± 9.8%
Transcription activity E (%) (Pol II; 30 nM): 22.9 ± 2.6%
Transcription activity E (%) (Pol II; 100 nM): 9.5 ± 4.1%
Ki (CHO cells [4]): ~500 nM
